Source: US20210253598A1, “ARYL ANNULATED MACROCYCLIC INDOLE DERIVATIVES” (priority 2017, published 2021)
Values joined by “and” are separate entries in the source; they are usually repeats but may differ in a detail not shown here. Equal entries are not always repeated. Structures can show the parent of a compound that is named as a salt. Where two headings read alike, the source gives them in different places.

Tests used:
[1] = the molecule shown is the open-chain precursor, crosslinker bond, 11-membered ring
[2] = system: SUDHL5; test: Induction of caspase-3/7 activity in SUDHL5 cells (Assay 4); assay type: cell-based; conditions: SUDHL5, 3 hours treatment, Caspase-Glo 3/7, median, read-out: Caspase SUDHL5 [M] (median)
Summary of the method: (§1)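 DLBCL lines SUDHL5 and SUDHL10 were treated with compound for 3 h at 37 °C. Caspase-3/7 activity was then read by Caspase-Glo 3/7 luminescence after 1 h at 37 °C. Medium-only background was subtracted and values were normalized to the mean of DMSO-treated cells.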

[3] = target: BCL-XL (Homo sapiens, UniProt Q07817); test: Protein-protein interaction assay BCL-XL/Bad BH3 peptide, TR-FRET (BCL-XL assay, Assay 2); assay type: binding; conditions: His-BCL-XL / Bad BH3 peptide, median
[4] = system: AMO-1; test: Anti-proliferative effect in AMO-1 cells, CellTiter-Glo (Assay 7); assay type: cell-based; conditions: AMO-1, 72 hours incubation, CellTiter-Glo, several values per example, read-out: Antiproli AMO-1
Summary of the method: (§2)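 CellTiter-Glo luminescence after 72 h compound exposure at 37 °C; a parallel time-zero plate was read the same way. IC50 derived relative to day 0 signal and DMSO control.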

[5] = system: SUDHL10; test: Anti-proliferative effect in SUDHL10 cells, CellTiter-Glo (Assay 7); assay type: cell-based; conditions: Homo sapiens, SU-DHL10, SUDHL10, 72 hours incubation, median, read-out: Antiproli SUDHL10 [M] (median)
Experimental: Assessment of the Anti-Proliferative Effect of Compounds in Different Cell Lines
The impact of compounds on the proliferation of different cell lines was assessed using the CellTiter-Glo® Luminescent Cell Viability reagent from Promega (G7573).
In parallel, cells were plated in a reference (day 0) plate for time zero determination. Cells were incubated in a humidified incubator at 37° C. overnight.
Rim wells were excluded. The cells were incubated for 72 hours in a humidified incubator at 37° C. The day 0 plate was measured by adding 30 μL/well of CTG solution (CellTiter-Glo® Luminescent Cell Viability reagent, Promega G7573) to time zero wells in the reference plate followed by a 10 minutes incubation and luminescence reading at 0.1 ms. using the PHERAstar FS microplate reader (BMG Labtech).
After 72 hours incubation, the treated plates were measured in the same way as the day 0 plate mentioned above. The Bella DRC Master Sheet was used to calculate IC50s, with CI=day 0 values and C0=DMSO control values.

[6] = system: SUDHL5; test: Induction of cytotoxicity in SUDHL5 cells, CellTiter-Glo (Assay 6); assay type: cell-based; conditions: SUDHL5, 5 hours incubation, median, read-out: Cytotox SUDHL5 [M] (median)
Summary of the method: (§3)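 Cells plated and held overnight at 37° C in a humidified incubator, then compound-treated for 5 hours at 37° C. Viability read by CellTiter-Glo luminescence after 15 minutes shaking at room temperature; cell-free medium served as control.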

[7] = target: T1, MCL-1 (Homo sapiens, UniProt Q07820, K194A/K197A/R201A); test: Protein-protein interaction assay MCL-1/Noxa BH3 peptide, TR-FRET (MCL-1 assay, Assay 1); assay type: binding; conditions: MCL-1 Assay [M] (median), MBP-MCL-1 / Noxa BH3 peptide
Summary of the method: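 Human MBP-fused MCL-1 (aa 173-321; 1 nM final) was pre-incubated 10 min at 22 °C with compound in pH 7 Tris buffer containing NaCl, KF, Tween-20, DTT and BGG. Displacement of biotinylated Noxa BH3 peptide was read by TR-FRET (anti-MBP-Eu cryptate/streptavidin-XL665) after 1 h at 22 °C plus overnight at 4 °C. IC50 came from four-parameter fits against DMSO controls.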

[8] = system: SUDHL5; test: Anti-proliferative effect in SUDHL5 cells, CellTiter-Glo (Assay 7); assay type: cell-based; conditions: SUDHL5, 72 hours incubation, CellTiter-Glo, median, read-out: Antiproli SUDHL5 [M] (median)
Summary of the method: as §2

[9] = system: SUDHL10; test: Induction of cytotoxicity in SUDHL10 cells, CellTiter-Glo (Assay 6); assay type: cell-based; conditions: SUDHL10, 5 hours incubation, median, read-out: Cytotox SUDHL10 [M] (median)
Summary of the method: as §3

[10] = system: A2780; test: Anti-proliferative effect in A2780 cells, CellTiter-Glo (Assay 7); assay type: cell-based; conditions: Homo sapiens, A2780, 72 h, A2780, 72 hours incubation, CellTiter-Glo; several values per example; read-out: Antiproli A2780
Summary of the method: as §2

[11] = system: SUDHL10; test: Induction of caspase-3/7 activity in SUDHL10 cells (Assay 4); assay type: cell-based; conditions: SUDHL10, 3 hours treatment, Caspase-Glo 3/7, median, read-out: Caspase SUDHL10 [M] (median)
Summary of the method: as §1

[12] = target: BCL-2 (Homo sapiens, UniProt P10415); test: Protein-protein interaction assay BCL-2/Bad BH3 peptide, TR-FRET (BCL-2 assay, Assay 3); assay type: binding; conditions: His-BCL-2 / Bad BH3 peptide, median
Experimental: The dose-dependent inhibition by the compounds described in this invention of the interaction between BCL-2 and the BH3 domain of Bad (both human) was determined using a steady state binding competition assay with time-resolved fluorescence energy transfer (TR-FRET) readout. For that purpose BCL-2 (amino acids 1-211, C-terminal fused to a hexahistidine (6×His) tag (SEQ ID 5) and a synthetic Bad BH3-derived peptide of sequence Biotin-PEG2-PEG2-[sequence]-Nle-[sequence]-amide (SEQ ID 4) served as protein receptor and tracer ligand respectively. The recombinant BCL-2 protein (expressed in E. coli) was purchased from BPS Bioscience (San Diego, Calif., USA). The Bad BH3-derived peptide can be obtained from e.g. Biosyntan (Berlin, Germany).
For that, 100-fold concentrated DMSO solutions were prepared by serial dilutions (1:3.4) of a 2 mM stock solution in a clear, 384-well microtiter plate (Greiner Bio-One, Frickenhausen, Germany). From there, 50 nl were transferred in a dark test plate (Greiner Bio-One, Frickenhausen, Germany). The assay was initiated by addition of 2 μl of a 2,5-fold concentrated His-BCL-2 solution (usually for a 1 nM end concentration in 5 μl reaction volume) in aqueous assay buffer [50 mM Tris/HCl pH 7, 100 mM sodium chloride (NaCl), 50 mM potassium fluoride (KF), 0.005% Tween-20, 2 mM DTT, 0.1% bovine gamma globulin (BGG)] to the compounds in the assay plate. This was followed by a 10-minute incubation step at 22° C. for pre-equilibration of the putative complex between His-BCL-2 and the compounds.
The mixture was incubated in the dark for one hour at 22° C. and then overnight at 4° C. The formation of BCL-2/Bad complexes was determined by measuring the resonance energy transfer of the anti-His-Eu-cryptate antibody to the streptavidin-XL665 present in the reaction. For that purpose, the fluorescence emission at 620 nm and 665 nm after excitation at 330-350 nm was measured in a TR-FRET measuring instrument, for instance a Rubystar or a Pherastar (both from BMG Lab Technologies, Offenburg, Germany) or a Viewlux (Perkin-Elmer). The ratio of the emission at 665 nm and at 622 nm was used as indicator of the amount of BCL-2/Bad complexes present.
The resulting data (ratio) were normalized, taking 0% inhibition as the mean value of control measurements (usually 32 data points) where all reagents were included. In this case 50 nl DMSO were used instead of compounds. […] IC50 values were determined by regression analysis based on a 4 parameter equation (minimum, maximum, IC50, Hill; Y=Max+(Min−Max)/(1+(X/IC50)^Hill) using the Screener Software (Genedata).

[13] = system: MV-4-11; test: Anti-proliferative effect in MV-4-11 cells, CellTiter-Glo (Assay 7); assay type: cell-based; conditions: MV-4-11, 72 hours incubation, CellTiter-Glo, several values per example, read-out: Antiproli MV-4-11
Summary of the method: as §2

[14] = target: T1, MCL-1; test: Protein-compound interaction assay, surface plasmon resonance (SPR assay, Assay 8); assay type: binding; conditions: geometric mean; for Kd: KD [M]
Source text: Protein-Compound Interaction Assay (SPR Assay)
The ability of the compounds described in this invention to bind to MCL-1 may be determined using surface plasmon resonance (SPR). This allows for the quantification of binding in terms of the equilibrium dissociation constant (KD [M]), as well as association and dissociation rate constants (kon [1/M 1/s] and koff [1/s], respectively). The measurements may be performed using Biacore® T200 or Biacore® S200 instruments (GE Healthcare).
Briefly, carboxymethylated dextran biosensor chips (Series S Sensor Chip CM5, GE Healthcare) were activated with 1-ethyl-3-(3-dimethylaminopropyl)-carbodiimide hydrochloride (EDC) and N-hydroxysuccinimide (NHS) according to the supplier's instructions. MBP-MCL-1 was diluted in 1×PBS-P+ (GE Healthcare) and injected on the activated chip surface. Subsequently, a solution of 1 M ethanolamine-HCl (GE Healthcare) was injected to block unreacted groups, resulting in approximately 400-2500 response units (RU) of immobilized protein. A reference surface was generated by treatment with NHS-EDC and ethanolamine-HCl. […] Compounds were injected for 60 s followed by a dissociation time of up to 1000 s.
The double-referenced sensorgrams were fit to a simple reversible Langmuir 1:1 reaction mechanism as implemented in the Biacore® T200 and S200 evaluation software (T200 evaluation software version 2.0 and S200 evaluation software version 1.0, GE Healthcare).

[15] = SPR, immobilized MBP-MCL-1, 25° C.

BCL-2, sequence (P10415 1-211): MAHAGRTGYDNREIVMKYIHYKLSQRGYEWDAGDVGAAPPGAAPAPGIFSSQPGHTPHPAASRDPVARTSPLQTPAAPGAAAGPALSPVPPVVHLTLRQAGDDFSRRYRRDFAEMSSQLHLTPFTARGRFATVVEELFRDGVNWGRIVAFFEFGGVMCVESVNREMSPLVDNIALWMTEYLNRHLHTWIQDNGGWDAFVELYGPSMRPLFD
BCL-XL, sequence (Q07817 1-212): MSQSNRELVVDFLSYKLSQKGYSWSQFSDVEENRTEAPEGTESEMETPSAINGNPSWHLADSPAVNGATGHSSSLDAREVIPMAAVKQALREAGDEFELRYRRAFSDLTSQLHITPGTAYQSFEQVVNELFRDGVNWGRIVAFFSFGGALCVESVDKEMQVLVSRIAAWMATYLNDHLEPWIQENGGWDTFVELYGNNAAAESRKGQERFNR
T1 sequence (Q07820 173-321 K194A/K197A/R201A, looked up): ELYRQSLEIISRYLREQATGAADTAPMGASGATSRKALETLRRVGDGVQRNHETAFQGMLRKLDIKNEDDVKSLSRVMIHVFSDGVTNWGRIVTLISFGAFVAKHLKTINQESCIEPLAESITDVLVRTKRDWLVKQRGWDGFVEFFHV

| Structure (SMILES) | EC50 ([2]; Homo sapiens, SU-DHL-5, 3 h) [M] | IC50 [3] [µM] | IC50 [4] | IC50 ([4]; Homo sapiens, AMO1, 72 h) [µM] | IC50 [5] [M] | IC50 [7] [M] | IC50 ([8]; Homo sapiens, SU-DHL-5, 72 h) [M] | EC50 ([11]; Homo sapiens, SU-DHL10, 3 h) [M] | IC50 [12] [µM] | further results |
| --- | --- | --- | --- | --- | --- | --- | --- | --- | --- | --- |
| CCOC(=O)c1[nH]c2c(-c3c(CC)nn(C)c3CO)c(Cl)ccc2c1CCCOc1cccc2cc(F)ccc12 | – | – | – | – | – | – | – | – | – | ring closure, isolated yield ([1]; 1,2-bis(bromomethyl)benzene/Cs2CO3, THF/MeCN, 35.9 mM, 50.0 °C): 62% |
| CCOC(=O)c1[nH]c2c(-c3c(CO)nn(C)c3C)c(Cl)ccc2c1CCCOc1cccc2ccccc12 | – | – | – | – | – | – | – | – | – | ring closure, isolated yield ([1]; 2,3-bis(chloromethyl)pyrazine/Cs2CO3/NaI, MeCN, 167.0 mM, 70.0 °C): 13%; ring closure, isolated yield ([1]; 2,3-bis(chloromethyl)pyridine HCl/Cs2CO3/NaI, MeCN, 94.0 mM, 75.0 °C): 10% |
| CCOC(=O)c1[nH]c2c(-c3c(CO)nn(C)c3CC)c(Cl)ccc2c1CCCOc1cccc2cc(F)ccc12 | – | – | – | – | – | – | – | – | – | ring closure, isolated yield ([1]; 1,2-bis(bromomethyl)benzene/Cs2CO3, THF/MeCN, 36.4 mM, 50.0 °C): 94% |
| CCc1c2c(nn1C)COCc1ccccc1Cn1c(C(=O)O)c(CCCOc3cccc4c3CCC4)c3ccc(F)c-2c31 (racemic) [Example 78, (rac)-1-(3-((2,3-Dihydro-1H-inden-4-yl)oxy)propyl)-14-ethyl-15-fluoro-13-methyl-4,9,11,13-tetrahydrobenzo[3,4]pyrazolo[4′,3′:9,10][1]oxa[6]azacycloundecino[8,7,6-hi]indole-2-carboxylic] | 2.1e-06 | > 20 | 6.82 µM | 6.61 | 1.9e-06 | 1.9e-09 | 3.3e-06 | 5.2e-06 | > 20 | IC50 ([6]; Homo sapiens, SU-DHL-5, 5 h): 2.1e-06 M; IC50 ([9]; Homo sapiens, SU-DHL10, 5 h): 3.7e-06 M; IC50 [10]: 5.04 µM |
| Cc1nn(C)c2c1-c1c(F)ccc3c(CCCOc4cccc5cc(F)ccc45)c(C(=O)O)n(c13)Cc1ccccc1COC2 (racemic) [Example 81, (rac)-15-Fluoro-1-(3-((6-fluoronaphthalen-1-yl)oxy)propyl)-12,14-dimethyl-4,9,11,12-tetrahydrobenzo[3,4]pyrazolo[4′,3′:9,10][1]oxa[6]azacycloundecino[8,7,6-hi]indole-2-carboxylic Acid] | 2.1e-06 | > 20 | 7.08 µM and 4.13 µM | 6.52 | 3e-06 | 4.6e-09 | 3.3e-06 | 5.2e-06 | 18 | IC50 ([6]; Homo sapiens, SU-DHL-5, 5 h): 2.5e-06 M; IC50 ([9]; Homo sapiens, SU-DHL10, 5 h): 4e-06 M; IC50 ([13]; Homo sapiens, MV4-11, 72 h): 7.69 µM; IC50 [13]: 7.82 µM and 6.41 µM |
| CCc1nn(C)c2c1-c1c(F)ccc3c(CCCOc4cccc5cc(F)ccc45)c(C(=O)O)n(c13)Cc1ccccc1COC2 (racemic) [Example 90, (rac)-14-Ethyl-15-fluoro-1-(3-((6-fluoronaphthalen-1-yl)oxy)propyl)-12-methyl-4,9,11,12-tetrahydrobenzo[3,4]pyrazolo[4′,3′:9,10][1,6]oxaazacycloundecino[8,7,6-hi]indole-2-carboxylic Acid] | 1.4e-06 | > 20 | 10.3 µM and 6.91 µM | 5.58 | 2.1e-06 | 3.2e-09 | 2e-06 | 6.6e-06 | 17.8 | IC50 ([13]; Homo sapiens, MV4-11, 72 h): 4.98 µM; IC50 [13]: 8.53 µM and 6.99 µM |
| Cc1c2c(nn1C)COCc1ccccc1Cn1c(C(=O)O)c(CCCOc3cccc4ccccc34)c3cccc-2c31 (single isomer, unassigned; enantiomer 1) [Example 2, 4,5-Dimethyl-17-[3-(naphthalen-1-yloxy)propyl]-5,7,9,14-tetrahydroindolo[7,1-fg]pyrazolo[3,4-d][2,8]benzoxazacycloundecine-16-carboxylic acid-N-ethylethanamine Salt (Enantiomer 1)] | – | > 20 | – | – | – | 2.3e-09 | – | – | > 20 | EC50 [2]: 2e-06 M; IC50 [6]: 2.3e-06 M; IC50 [8]: 2.9e-06 M; IC50 [9]: 7.3e-06 M; EC50 [11]: 7.7e-06 M; Kd [14, 15]: 6e-09 M; kon [1/M 1/s] [14, 15]: 1.1E7 1/M 1/s; koff ([14]; read-out: koff [1/s], SPR, immobilized MBP-MCL-1, 25° C.): 0.068 s⁻¹ |
| Cc1c2c(nn1C)COCc1ccccc1Cn1c(C(=O)O)c(CCCOc3cccc4ccccc34)c3cccc-2c31 (single isomer, unassigned; enantiomer 2) [Example 3, 4,5-Dimethyl-17-[3-(naphthalen-1-yloxy)propyl]-5,7,9,14-tetrahydroindolo[7,1-fg]pyrazolo[3,4-d][2,8]benzoxazacycloundecine-16-carboxylic acid-N-ethylethanamine Salt (Enantiomer 2)] | – | – | – | – | – | 2.7e-08 | – | – | – | EC50 [2]: > 1.2e-05 M; IC50 [6]: 8.3e-06 M; IC50 [8]: 7.7e-06 M; IC50 [9]: > 3.3e-05 M; EC50 [11]: > 3.3e-05 M; Kd [14, 15]: 1.7e-07 M; koff [14, 15]: 0.046 s⁻¹; kon [1/M 1/s] [14, 15]: 2.8E5 1/M 1/s |
